Data set [1] addresses Cystic fibrosis transmembrane conductance regulator/Golgi-associated PDZ and coiled-coil motif-containing protein (Homo sapiens, UniProt P13569+Q9HD26). The data set can be described thus: CAL PDZ peptide-binding inhibitors, dose response, biochemical, fluorescence polarization, Cerulean-tagged CAL PDZ, cherry-picks (AID 504773).
The target in the next data set is ORF 73 (Human herpesvirus 8, UniProt O40947). Kind of data set: inhibitors of C-LANA binding to LBS DNA, dose response, biochemical, fluorescence polarization, cherry-picked samples (AID 504725).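 Note: fluorescence polarization of a labeled DNA duplex reporting LANA DNA binding; potency is for inhibitors that block LANA binding to the DNA.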 Also noted: species or system Human gammaherpesvirus 8.
Data set [2] can be described thus: CFTR ΔF508 corrector activity in bronchial cells, dose response, human bronchial epithelial cells, plate reader, cherry-pick, two tests (AID 743267). In kind it is functional, cell-based.
The next data set deals with Salmon testes DNA. The data set can be described thus: DNA intercalators displacing acridine orange, dose response, artefact control for KSHV LANA DNA-binding inhibitor project, biochemical, fluorescence polarization, cherry-picked samples, set 2 (AID 504727). Also noted: species or system Salmonidae.
For data set [3], the target named is T1, Eukaryotic translation initiation factor 2-alpha kinase 3 (Homo sapiens, UniProt Q9NZJ5). The data set can be described thus: Dose response cell-based high-throughput screening assay to measure PERK inhibition. [Related pubchem assays: 1416 ]. In kind it is functional.
The target in data set [4] is T1, Eukaryotic translation initiation factor 2-alpha kinase 3. Kind of data set: Counterscreen assay for PERK inhibitors: Dose response cell-based high throughput screening assay to measure inhibition of PERK at 6 hours. [Related pubchem assays: 1522, 1416 ]. It is filed as functional.
The subject of data set [5] is Streptococcus sp. 'group A'. Kind of data set: growth inhibition of control SK(-) GAS strain, dose response, counter-screen for streptokinase expression inhibitor project, luminescence, kanamycin, BacTiterGlo, confirmation (AID 1900). It is filed as functional, organism-based.
For another data set, the target named is T2, Streptokinase A (Streptococcus pyogenes serotype M1, UniProt P10520).
T2 sequence (P10520 whole entry): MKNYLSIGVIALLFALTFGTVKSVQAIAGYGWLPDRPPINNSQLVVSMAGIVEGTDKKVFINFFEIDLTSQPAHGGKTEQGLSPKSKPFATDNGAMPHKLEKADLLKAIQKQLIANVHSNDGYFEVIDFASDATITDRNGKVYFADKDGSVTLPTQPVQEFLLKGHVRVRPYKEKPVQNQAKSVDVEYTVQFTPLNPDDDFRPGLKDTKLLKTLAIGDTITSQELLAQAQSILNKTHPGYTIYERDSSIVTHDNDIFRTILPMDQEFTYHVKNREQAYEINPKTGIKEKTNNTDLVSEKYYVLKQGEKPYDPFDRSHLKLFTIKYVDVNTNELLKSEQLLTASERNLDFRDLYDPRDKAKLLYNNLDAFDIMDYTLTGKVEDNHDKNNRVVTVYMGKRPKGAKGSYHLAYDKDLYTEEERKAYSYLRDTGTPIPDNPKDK
Kind of data set: S. pyogenes streptokinase expression inhibitors, potency, dose response, plasminogen activation absorbance, OD405 (AID 1914).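 Note: secreted streptokinase activity via plasminogen activation per viability signal from cell pellet.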 It is filed as functional, Streptococcus pyogenes M1 GAS.

For another data set, the system named is Streptococcus. Kind of data set: Group A Streptococcus viability loss, dose response, counter-screen for streptokinase expression inhibitor project, luminescence, BacTiterGlo (AID 1915).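 Note: potency for reduction of bacterial viability or growth.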 It is filed as functional, organism-based.
Another data set has as its target X-box-binding protein 1 (Homo sapiens, UniProt P17861). In kind it is functional, Cricetulus griseus.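 Note: confirmatory dose-response counter-screen serving a CHOP assay.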
The next data set has as its target Cytochrome P450 2C19 (Homo sapiens, UniProt P33261). Kind of data set: Cytochrome panel assay with activity outcomes. Panel member name: p450-cyp2c19 Compounds with AC50 equal or less than 10 uM are considered active. In kind it is functional.
Data set [6] addresses T3, RNA-binding protein pos-1 (Caenorhabditis elegans, UniProt G5EF15).
T3 sequence (G5EF15 whole entry): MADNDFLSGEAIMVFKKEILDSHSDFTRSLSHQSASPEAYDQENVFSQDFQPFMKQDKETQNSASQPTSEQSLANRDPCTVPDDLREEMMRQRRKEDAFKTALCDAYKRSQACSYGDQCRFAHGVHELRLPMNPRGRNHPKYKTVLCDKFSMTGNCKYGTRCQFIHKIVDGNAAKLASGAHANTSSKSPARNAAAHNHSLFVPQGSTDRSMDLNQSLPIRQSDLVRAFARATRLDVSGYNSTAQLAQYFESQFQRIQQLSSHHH
Kind of data set: inhibitors of POS-1/mex-3 RNA binding, dose response, biochemical, fluorescence polarization (AID 1964).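 Note: purified POS-1 fused to maltose binding protein made in E. coli; potency of compounds blocking POS-1 binding to fluorescent RNA.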

Another data set concerns the target Cytochrome P450 2C9 (Homo sapiens, UniProt P11712). The settings on record: read-out: Potency.
For the next data set, the system named is Vero. The data set can be described thus: Vero cell cytotoxicity, cytotoxicity control for flavivirus capping enzyme inhibitors (AID 588742). The settings on record: Chlorocebus sabaeus. It is filed as functional.
In the next data set the target is Cytochrome P450 2D6 (Homo sapiens, UniProt P10635). Kind of data set: qHTS Assay for Inhibitors and Substrates of Cytochrome P450 2D6. [Related pubchem assays: 410 ]. In kind it is ADME. The settings on record: human; read-out: Potency.
For data set [7], the target named is T4, Zinc finger protein mex-5 (Caenorhabditis elegans, UniProt Q9XUB2).
T4 sequence (Q9XUB2 whole entry): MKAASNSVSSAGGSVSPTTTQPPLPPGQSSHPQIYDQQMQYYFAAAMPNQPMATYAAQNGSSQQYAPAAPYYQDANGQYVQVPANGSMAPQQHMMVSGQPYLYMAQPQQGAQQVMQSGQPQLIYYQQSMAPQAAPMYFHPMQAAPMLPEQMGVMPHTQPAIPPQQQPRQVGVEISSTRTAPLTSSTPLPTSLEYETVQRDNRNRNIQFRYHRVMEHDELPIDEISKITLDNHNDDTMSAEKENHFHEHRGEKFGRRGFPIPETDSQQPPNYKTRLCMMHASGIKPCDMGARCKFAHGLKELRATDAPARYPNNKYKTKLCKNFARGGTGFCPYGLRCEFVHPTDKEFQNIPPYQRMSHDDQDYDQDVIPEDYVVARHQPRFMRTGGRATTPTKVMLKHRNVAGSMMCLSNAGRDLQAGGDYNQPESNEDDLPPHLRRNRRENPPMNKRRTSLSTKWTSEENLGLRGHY
Kind of data set: MEX-5/TCR-2 RNA interaction inhibitors, dose response, biochemical, C. elegans, fluorescence polarization (AID 1960).

The source made the active and inactive calls.

T1 sequence (Q9NZJ5 whole entry): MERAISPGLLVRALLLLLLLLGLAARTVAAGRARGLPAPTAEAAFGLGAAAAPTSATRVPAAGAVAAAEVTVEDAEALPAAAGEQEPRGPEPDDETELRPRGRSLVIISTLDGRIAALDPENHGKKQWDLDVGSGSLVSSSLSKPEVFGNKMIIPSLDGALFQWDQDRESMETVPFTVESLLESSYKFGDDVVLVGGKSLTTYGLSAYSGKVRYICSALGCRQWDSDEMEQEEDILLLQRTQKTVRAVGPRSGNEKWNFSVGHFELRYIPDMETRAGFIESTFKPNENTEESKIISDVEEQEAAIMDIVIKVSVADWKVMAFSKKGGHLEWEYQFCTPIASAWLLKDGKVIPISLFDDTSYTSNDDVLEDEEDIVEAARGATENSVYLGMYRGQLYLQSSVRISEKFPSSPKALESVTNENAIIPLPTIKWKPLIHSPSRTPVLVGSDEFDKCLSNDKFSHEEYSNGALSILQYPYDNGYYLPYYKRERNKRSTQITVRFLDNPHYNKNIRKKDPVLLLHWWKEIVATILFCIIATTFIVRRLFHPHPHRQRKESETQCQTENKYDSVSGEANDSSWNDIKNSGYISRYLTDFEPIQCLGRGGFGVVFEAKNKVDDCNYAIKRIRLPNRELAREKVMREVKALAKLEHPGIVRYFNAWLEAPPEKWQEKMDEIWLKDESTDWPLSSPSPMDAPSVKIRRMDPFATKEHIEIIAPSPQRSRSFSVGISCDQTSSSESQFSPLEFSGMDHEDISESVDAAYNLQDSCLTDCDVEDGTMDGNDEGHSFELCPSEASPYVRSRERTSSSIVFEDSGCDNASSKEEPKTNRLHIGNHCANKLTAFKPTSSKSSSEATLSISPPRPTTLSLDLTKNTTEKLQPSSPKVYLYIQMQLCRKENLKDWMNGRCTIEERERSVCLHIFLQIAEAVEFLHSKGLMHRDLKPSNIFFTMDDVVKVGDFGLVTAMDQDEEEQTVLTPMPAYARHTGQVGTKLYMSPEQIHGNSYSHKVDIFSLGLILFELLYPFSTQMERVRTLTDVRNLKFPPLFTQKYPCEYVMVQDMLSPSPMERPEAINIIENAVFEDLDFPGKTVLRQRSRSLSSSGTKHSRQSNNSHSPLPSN
Cytochrome P450 2C19, sequence (P33261 whole entry): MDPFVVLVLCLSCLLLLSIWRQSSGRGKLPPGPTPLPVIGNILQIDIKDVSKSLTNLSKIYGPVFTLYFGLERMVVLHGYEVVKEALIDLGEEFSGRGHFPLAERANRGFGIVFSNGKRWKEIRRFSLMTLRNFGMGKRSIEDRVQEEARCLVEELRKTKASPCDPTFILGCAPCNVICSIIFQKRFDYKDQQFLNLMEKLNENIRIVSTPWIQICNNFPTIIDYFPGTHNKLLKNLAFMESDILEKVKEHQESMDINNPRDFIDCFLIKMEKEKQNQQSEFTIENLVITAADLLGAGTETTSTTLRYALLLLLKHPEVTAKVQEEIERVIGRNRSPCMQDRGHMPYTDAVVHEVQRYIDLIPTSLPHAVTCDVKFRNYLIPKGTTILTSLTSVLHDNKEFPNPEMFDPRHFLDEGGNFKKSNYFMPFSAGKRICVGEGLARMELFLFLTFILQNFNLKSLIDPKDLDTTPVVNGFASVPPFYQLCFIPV
Cytochrome P450 2C9, sequence (P11712 whole entry): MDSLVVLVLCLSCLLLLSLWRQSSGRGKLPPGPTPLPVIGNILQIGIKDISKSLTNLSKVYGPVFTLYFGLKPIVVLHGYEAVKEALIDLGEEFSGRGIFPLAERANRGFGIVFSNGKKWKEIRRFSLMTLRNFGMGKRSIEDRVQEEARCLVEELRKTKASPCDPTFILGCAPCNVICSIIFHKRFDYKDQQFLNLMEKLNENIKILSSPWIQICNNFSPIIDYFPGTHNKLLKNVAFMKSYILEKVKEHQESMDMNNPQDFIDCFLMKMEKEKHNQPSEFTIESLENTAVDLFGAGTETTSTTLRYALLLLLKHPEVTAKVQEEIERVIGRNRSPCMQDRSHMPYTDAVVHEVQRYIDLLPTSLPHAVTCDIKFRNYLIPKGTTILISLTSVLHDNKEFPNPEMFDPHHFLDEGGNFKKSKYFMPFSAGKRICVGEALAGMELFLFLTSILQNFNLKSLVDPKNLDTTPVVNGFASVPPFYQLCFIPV
Cytochrome P450 2D6, sequence (P10635 whole entry): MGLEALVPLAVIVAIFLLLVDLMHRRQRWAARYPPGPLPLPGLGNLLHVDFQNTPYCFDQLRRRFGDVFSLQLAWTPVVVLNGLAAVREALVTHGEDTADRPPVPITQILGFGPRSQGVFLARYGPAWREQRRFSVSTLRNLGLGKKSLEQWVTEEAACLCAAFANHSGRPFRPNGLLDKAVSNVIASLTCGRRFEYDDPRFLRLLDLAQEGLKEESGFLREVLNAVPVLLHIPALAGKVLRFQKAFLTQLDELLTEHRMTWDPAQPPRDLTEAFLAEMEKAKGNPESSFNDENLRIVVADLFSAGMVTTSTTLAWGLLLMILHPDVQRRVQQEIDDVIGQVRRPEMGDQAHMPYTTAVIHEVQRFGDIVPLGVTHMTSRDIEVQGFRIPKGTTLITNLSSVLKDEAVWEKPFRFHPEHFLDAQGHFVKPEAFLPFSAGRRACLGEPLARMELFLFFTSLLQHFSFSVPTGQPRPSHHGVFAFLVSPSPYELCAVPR
X-box-binding protein 1, sequence (P17861 whole entry): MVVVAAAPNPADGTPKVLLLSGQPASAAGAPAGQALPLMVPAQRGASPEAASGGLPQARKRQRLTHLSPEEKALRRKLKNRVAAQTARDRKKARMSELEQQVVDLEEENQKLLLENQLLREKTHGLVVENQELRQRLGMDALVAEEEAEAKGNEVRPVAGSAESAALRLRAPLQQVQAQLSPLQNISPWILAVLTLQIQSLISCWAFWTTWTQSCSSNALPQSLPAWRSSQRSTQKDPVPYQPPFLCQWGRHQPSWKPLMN
Cystic fibrosis transmembrane conductance regulator/Golgi-associated PDZ and coiled-coil motif-containing protein, sequence (P13569 whole entry, other chains not shown): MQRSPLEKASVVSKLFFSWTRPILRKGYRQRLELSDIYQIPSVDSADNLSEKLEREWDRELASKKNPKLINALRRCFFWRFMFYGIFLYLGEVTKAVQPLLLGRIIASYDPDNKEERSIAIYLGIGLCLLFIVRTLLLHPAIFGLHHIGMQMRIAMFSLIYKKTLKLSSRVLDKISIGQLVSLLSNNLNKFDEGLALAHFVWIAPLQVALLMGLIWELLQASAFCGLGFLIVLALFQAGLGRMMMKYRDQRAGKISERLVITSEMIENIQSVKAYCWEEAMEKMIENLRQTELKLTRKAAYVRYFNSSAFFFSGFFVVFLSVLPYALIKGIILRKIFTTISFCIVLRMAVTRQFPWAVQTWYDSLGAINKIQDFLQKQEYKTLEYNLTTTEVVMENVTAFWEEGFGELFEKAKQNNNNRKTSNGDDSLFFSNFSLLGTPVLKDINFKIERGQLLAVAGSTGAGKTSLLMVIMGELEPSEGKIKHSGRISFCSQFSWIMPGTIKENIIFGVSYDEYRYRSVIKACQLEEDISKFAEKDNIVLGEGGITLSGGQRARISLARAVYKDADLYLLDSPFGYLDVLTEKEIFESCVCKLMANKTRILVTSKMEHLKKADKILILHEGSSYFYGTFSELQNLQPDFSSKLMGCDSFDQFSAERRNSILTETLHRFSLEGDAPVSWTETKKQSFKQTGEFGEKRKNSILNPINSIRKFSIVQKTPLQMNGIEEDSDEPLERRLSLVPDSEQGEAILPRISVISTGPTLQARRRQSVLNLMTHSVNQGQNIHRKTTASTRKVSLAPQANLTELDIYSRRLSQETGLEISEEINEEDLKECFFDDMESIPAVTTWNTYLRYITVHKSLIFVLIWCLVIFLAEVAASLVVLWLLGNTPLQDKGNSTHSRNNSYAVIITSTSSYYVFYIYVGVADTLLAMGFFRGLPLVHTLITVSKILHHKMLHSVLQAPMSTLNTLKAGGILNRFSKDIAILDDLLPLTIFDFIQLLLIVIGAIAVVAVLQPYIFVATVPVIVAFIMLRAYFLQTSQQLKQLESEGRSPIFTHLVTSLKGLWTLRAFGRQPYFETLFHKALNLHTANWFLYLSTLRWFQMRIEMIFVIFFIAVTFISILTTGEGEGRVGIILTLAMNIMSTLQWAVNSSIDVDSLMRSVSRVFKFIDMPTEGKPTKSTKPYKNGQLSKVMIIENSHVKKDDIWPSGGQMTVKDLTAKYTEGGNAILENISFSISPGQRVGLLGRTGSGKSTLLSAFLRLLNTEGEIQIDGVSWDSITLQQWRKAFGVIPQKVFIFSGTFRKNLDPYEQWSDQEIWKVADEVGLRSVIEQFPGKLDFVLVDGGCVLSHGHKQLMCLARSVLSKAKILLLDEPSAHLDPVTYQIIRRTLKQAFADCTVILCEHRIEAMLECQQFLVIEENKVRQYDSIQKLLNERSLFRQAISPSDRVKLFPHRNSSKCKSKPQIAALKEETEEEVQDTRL

In the case of `c1ccc(C(Nc2cccnc2)c2ccccc2)cc1`, the AC50 in data set [1] is 33 µM (active).

For the molecule `CN1C(=O)/C(=N\C2CCCCC2)c2c3ccccc3c(O)c3cccc1c23`, the AC50 was 77.3 µM (active) at ORF 73, 8.48 µM (active) in [2] and 101 µM (active) with Salmon testes DNA.

With `Cc1cccc(/C=N/n2c(S)nnc2-c2ccco2)c1`, the EC50 in [3] and in data set [4] was > 55.7 µM (not active) each time.

Take `Cc1cccc(NCC(=O)N/N=C\c2cccc(Oc3ccccc3)c2)c1`: the EC50 (in [5]; at Streptokinase A; in the data set on Streptococcus) was > 150 µM (not active) in each case. Besides, the “Absolute IC50 (XBP1)” value at X-box-binding protein 1 was determined as 10 µM.

As for `C=CC1=C(C)c2cc3[nH]c(cc4nc(cc5[nH]c(cc1n2)c(C)c5CCC(=O)O)C(CCC(=O)O)=C4C)c(C)c3C=C` [PROTOPORPHYRIN], the AC50 entry on Cytochrome P450 2C19 was “inconclusive”; on Cytochrome P450 2C9, 6.31 µM (inconclusive); on Cytochrome P450 2D6, 25.1 µM (inconclusive). Moreover, the EC50 in [6] was 9.95 µM (active); in [7], 8.89 µM (active). The CC50 in the data set with Vero is 19.7 µM (active).
